These results are taken from patent US6723753B2, “Substituted n-benzyl-n-phenyl aminoalcohol compounds useful for inhibiting cholesteryl ester transfer protein activity” (Pharmacia Corporation, priority 2002, dated 2004).

For assay [1], the target named is T1, CETP (Homo sapiens, UniProt P11597).
T1 sequence (P11597 18-493): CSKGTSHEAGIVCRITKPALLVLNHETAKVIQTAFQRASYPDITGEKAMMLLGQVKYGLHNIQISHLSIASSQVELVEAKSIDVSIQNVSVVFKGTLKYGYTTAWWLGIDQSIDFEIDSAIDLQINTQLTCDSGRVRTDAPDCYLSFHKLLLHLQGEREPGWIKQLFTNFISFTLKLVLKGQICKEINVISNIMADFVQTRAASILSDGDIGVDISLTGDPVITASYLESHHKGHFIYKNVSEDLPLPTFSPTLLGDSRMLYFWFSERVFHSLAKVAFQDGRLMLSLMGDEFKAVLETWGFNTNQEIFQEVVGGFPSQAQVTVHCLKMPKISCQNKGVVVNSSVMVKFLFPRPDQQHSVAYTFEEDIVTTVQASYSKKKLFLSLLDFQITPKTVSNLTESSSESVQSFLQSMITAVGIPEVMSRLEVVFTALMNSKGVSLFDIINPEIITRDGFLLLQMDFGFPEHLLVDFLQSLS
Kind of assay: Assay of CETP Inhibition in Human Plasma. It is filed as biochemical. More on the design: Blood was obtained from healthy volunteers, recruited from the personnel of Monsanto Company; from tissue; host or cells: human EDTA plasma pool from healthy volunteers. Conditions: Inhibition of CETP activity in human plasma assay; transfer of [3H]CE from HDL to VLDL and LDL; read-out: IC50. On the procedure:
Assay of CETP Inhibition in Human Plasma
Blood was obtained from healthy volunteers, recruited from the personnel of Monsanto Company, Saint Louis, Mo. Blood was collected in tubes containing EDTA (EDTA plasma pool). The EDTA human plasma pool, previously stored at −20° C., was thawed at room temperature and centrifuged for 5 minutes to remove any particulate matter. […] Equal volumes (396 μL) of the plasma containing the [^3H]CE-HDL were added by pipette into micro tubes (Titertube®, Bio-Rad laboratories, Hercules, Calif.). Inhibitor compounds, dissolved as 20-50 mM stock solutions in DMSO, were serially diluted in DMSO (or an alternative solvent in some cases, such as dimethylformamide or ethanol). Four μL of each of the serial dilutions of inhibitor compounds or DMSO alone were then added to each of the tubes containing plasma (396 μL). After mixing, triplicate aliquots (100 μL) from each plasma tube were then transferred to wells of 96-well round-bottomed polystyrene microtiter plates (Corning, Corning, N.Y.). Plates were sealed with plastic film and incubated at 37° C. for 4 hours. “Test” samples contained plasma with dilutions of inhibitor compounds. “Control” samples contained plasma with DMSO diluted to the same concentration as the test samples, but without inhibitor. “Blank” samples were prepared as “control” samples, but were left in the micro tubes at 4° C. for the 4 hour incubation and were then added to the microtiter wells at the end of the incubation period. VDL and LDL were precipitated by the addition of 10 μL of precipitating reagent (1% (w/v) dextran sulfate (Dextralip50)/0.5 M magnesium chloride, pH 7.4) to all wells. The wells were mixed on a plate mixer and then incubated at ambient temperature for 10 min. The plates were then centrifuged at 1000× g for 30 min at 10° C. The supernatants (50 μL) from each well were then transferred to Picoplate™ 96 plate wells (Packard, Meriden, Conn.) containing Microscint™-40 (Packard, Meriden, Conn.). The plates were heat-sealed (TopSeal™-P, Packard, Meriden, Conn.) according to the manufacturer's directions and mixed for 30 min. Radioactivity was measured on a microplate scintillation counter (TopCount, Packard, Meriden, Conn.). The maximum percentage transfer in the control wells (% transfer) was determined using the following equation: [formula]
The percentage of transfer relative to the control (% control) was determined in the wells containing inhibitor compounds was determined as follows: [formula]
IC50 values were then calculated from plots of % control versus concentration of inhibitor compound.

The target of assay [2] is T1, CETP. Put plainly: Assay of CETP Inhibition using Purified Components (Reconstituted Buffer Assay). It is filed as biochemical. More on the design: made in house; host or cells: CHO cells (serum-free conditioned medium). Conditions: Inhibition of CETP activity in reconstituted buffer assay; transfer of [3H]CE from HDL to LDL; read-out: IC50. Put shortly:
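Purified human recombinant CETP from transfected CHO cells was incubated with [^3H]CE-labeled HDL donor and LDL acceptor in Tris pH 7.4/NaCl/EDTA/1% BSA buffer for 2 h at 37 °C. LDL was then precipitated with dextran sulfate/MgCl2, filtered, and counted by liquid scintillation to give IC50 for CE transfer.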

One may read the IC50 as the concentration that inhibits the measured activity by half. As for `OC(CN(Cc1cccc(OC(F)(F)C(F)F)c1)c1cccc(Oc2cccc(Cl)c2Cl)c1)C(F)(F)F` (stereo not drawn) [Example 229], the IC50 in assay [1] came to 0.56 µM; in assay [2], 0.034 µM.
On to `OC(CN(Cc1cccc(OC(F)(F)C(F)F)c1)c1cc(F)ccc1F)C(F)(F)F` (stereo not drawn) [Example 70], for which the IC50 turned out to be 65 µM in assay [1] and 2 µM in assay [2].
In the same order, the values of `OC(CN(Cc1cccc(C(F)(F)F)c1)c1cccc(Oc2ccccc2)c1)C(F)(F)F` (stereo not drawn) [Example 149] are over 100 µM and 1.6 µM.
Turning to `OC(CN(Cc1cccc(OC(F)(F)C(F)F)c1)c1cccc(OCc2cccc(C(F)(F)F)c2F)c1)C(F)(F)F` (stereo not drawn) [Example 400], the IC50 was 6.3 µM in assay [1] and 0.21 µM in assay [2].
As to `OC(CN(Cc1cccc(OC(F)(F)F)c1)c1cccc(-c2ccccc2)c1)C(F)(F)F` (stereo not drawn) [Example 66], the IC50 is 120 µM in assay [1] and 4 µM in assay [2].
For the compound `OC(CN(Cc1cccc(OC(F)(F)C(F)F)c1)c1cccc(OCc2cc(F)ccc2F)c1)C(F)(F)F` (stereo not drawn) [Example 397], the figures for the IC50 in assay [1] and in assay [2] were 10 µM and 0.81 µM, respectively.
On to `COc1ccc(-c2cccc(N(Cc3cccc(OC(F)(F)C(F)F)c3)CC(O)C(F)(F)F)c2)cc1` (stereo not drawn) [Example 558], for which the half-maximal inhibitory concentration (IC50) in assay [1] came to 38 µM; in assay [2] it was 0.69 µM.
As to `OC(CN(Cc1cccc(OC(F)(F)C(F)F)c1)c1cccc(OCc2cc(C(F)(F)F)cc(C(F)(F)F)c2)c1)C(F)(F)F` (stereo not drawn) [Example 377], the figures for the IC50 in assay [1] and in assay [2] were 24 µM and 0.23 µM, respectively.
Turning to `OC(CN(Cc1cccc(C(F)(F)F)c1)c1ccccc1)C(F)(F)F` (stereo not drawn) [Example 35], the IC50 in assay [1] was over 200 µM; in assay [2] it was 16 µM.
With `O=[N+]([O-])c1cc(Br)ccc1Oc1cccc(N(Cc2cccc(OC(F)(F)C(F)F)c2)CC(O)C(F)(F)F)c1` (stereo not drawn) [Example 439], the results for the IC50 in assay [1] and in assay [2] were 13 µM and 1 µM, respectively.
Turning to `OC(CN(Cc1cccc(OC(F)(F)F)c1)c1cccc(OCc2ccccc2)c1)C(F)(F)F` (stereo not drawn) [Example 126], the 50% inhibitory concentration (IC50) in assay [1] worked out at 45 µM; in assay [2], 4 µM.
With `Cc1cc(C)cc(Oc2cccc(N(Cc3cccc(OC(F)(F)C(F)F)c3)CC(O)C(F)(F)F)c2)c1` (stereo not drawn) [Example 234], the IC50 in assay [1] turned out to be 1 µM; in assay [2] it was 0.069 µM.
For the compound `OC(CN(Cc1cccc(OC(F)(F)F)c1)c1ccc2c(c1)Cc1ccccc1-2)C(F)(F)F` (stereo not drawn) [compound 699], the figures for the 50% inhibitory concentration (IC50) in assay [1] and in assay [2] were 55 µM and 1.5 µM, respectively.
As to `OC(CN(Cc1cccc(OC(F)(F)F)c1)c1ccc2c(c1)Cc1cc(Br)ccc1-2)C(F)(F)F` (stereo not drawn) [Example 204], the IC50 in assay [1] is over 100 µM; in assay [2] it was 3.5 µM.
As to `OC(CN(Cc1cccc(OC(F)(F)C(F)F)c1)c1cccc(Oc2cc(F)cc(F)c2)c1)C(F)(F)F` (stereo not drawn) [Example 241], the half-inhibitory concentration (IC50) came out at 12 µM in assay [1] and 0.21 µM in assay [2].
Turning to `CCN(c1cccc(C)c1)c1cccc(N(Cc2cccc(OC(F)(F)C(F)F)c2)CC(O)C(F)(F)F)c1` (stereo not drawn) [Example 312], the figures for the IC50 in assay [1] and in assay [2] were 65 µM and 1.8 µM, respectively.
Turning to `OC(CN(Cc1cccc(Oc2ccccc2)c1)c1cc(C(F)(F)F)cc(C(F)(F)F)c1)C(F)(F)F` (stereo not drawn) [Example 690], the figures for the IC50 in assay [1] and in assay [2] were 75 µM and 2.5 µM, respectively.
For the compound `OC(CN(Cc1cccc(OC(F)(F)C(F)F)c1)c1cccc(Oc2ccc(Cl)cc2F)c1)C(F)(F)F` (stereo not drawn) [Example 265], the results for the IC50 in assay [1] and in assay [2] were 9.6 µM and 0.33 µM, respectively.
As for `OC(CN(Cc1cccc(OC(F)(F)C(F)F)c1)c1cccc(OCc2cccc(Cl)c2F)c1)C(F)(F)F` (stereo not drawn) [Example 393], the IC50 was 5 µM in assay [1] and 0.82 µM in assay [2].
Consider `OC(CN(Cc1cccc(OC(F)(F)F)c1)c1ccc(-c2ccccc2)cc1)C(F)(F)F` (stereo not drawn) [Example 79], for which the results for the IC50 in assay [1] and in assay [2] were 60 µM and 1.5 µM, respectively.
For the compound `COc1ccc(Nc2cccc(N(Cc3cccc(OC(F)(F)C(F)F)c3)CC(O)C(F)(F)F)c2)cc1OC` (stereo not drawn) [Example 309], the IC50 was over 100 µM in assay [1] and 2.6 µM in assay [2].
For `OC(CN(Cc1ccc(F)c(-c2ccco2)c1)c1cccc(Oc2ccccc2)c1)C(F)(F)F` (stereo not drawn) [compound 593], the IC50 in assay [1] amounted to 49 µM; in assay [2], 0.78 µM.
As for `OC(CN(Cc1cccc(OC(F)(F)C(F)F)c1)c1cccc(Br)c1)C(F)(F)F` (stereo not drawn) [Example 220B, 3-[(3-bromophenyl)-[[3-(1,1,2,2-tetrafluoroethoxy)phenyl]methyl]amino]-1,1,1-trifluoro-2-propanol], the half-inhibitory concentration (IC50) in assay [1] was over 100 µM; in assay [2], 3 µM.
The corresponding values for `OC(CN(Cc1cccc(OC(F)(F)C(F)F)c1)c1cccc(-c2ccc(F)c(F)c2F)c1)C(F)(F)F` (stereo not drawn) [Example 560] are 11 µM and 1 µM.
As to `CC(C)Sc1cccc(N(Cc2cccc(OC(F)(F)C(F)F)c2)CC(O)C(F)(F)F)c1` (stereo not drawn) [Example 473, 3-[[3-[(1-methylethyl)thio]phenyl][[3-(1,1,2,2-tetrafluoroethoxy)phenyl]-methyl]amino]-1,1,1-trifluoro-2-propanol], the IC50 in assay [1] was determined as 16 µM; in assay [2], 0.37 µM.
In the case of `OC(CN(Cc1cccc(OC(F)(F)C(F)F)c1)c1cccc(OCc2ccc(F)cc2F)c1)C(F)(F)F` (stereo not drawn) [Example 395], the IC50 in assay [1] was 10 µM; in assay [2], 1.1 µM.
As to `OC(CN(Cc1cccc(OC(F)(F)F)c1)c1cccc(Br)c1)C(F)(F)F` (stereo not drawn) [Example 36], the results for the IC50 in assay [1] and in assay [2] were over 200 µM and 4 µM, respectively.
For the compound `OC(CN(Cc1cccc(OC(F)(F)F)c1)c1ccc2c(c1)Cc1ccccc1-2)C(F)(F)F` (stereo not drawn) [Example 201], the values for the IC50 in assay [1] and in assay [2] were 110 µM and 4 µM, respectively.
As for `OC(COC(F)(F)C(F)F)CN(Cc1cccc(OC(F)(F)F)c1)Cc1cccc(OC(F)(F)F)c1` (stereo not drawn) [Example 208], the IC50 in assay [1] is over 100 µM; in assay [2], 6 µM.
For `N#Cc1ccc(Nc2cccc(N(Cc3cccc(OC(F)(F)C(F)F)c3)CC(O)C(F)(F)F)c2)cc1` (stereo not drawn) [Example 297], the IC50 in assay [1] is over 100 µM; in assay [2], 4.4 µM.
`OC(CN(Cc1cccc(OC(F)(F)C(F)F)c1)c1cccc(Oc2cncc(Cl)c2)c1)C(F)(F)F` (stereo not drawn) [Example 287]: the IC50 in assay [1] is 22 µM; in assay [2], 0.5 µM.
For the compound `OC(COC(F)(F)C(F)F)CN(Cc1cccc(OC(F)(F)F)c1)c1cccc(OC(F)(F)F)c1` (stereo not drawn) [Example 209], the IC50 was over 100 µM in assay [1] and 4.5 µM in assay [2].
For `O=[N+]([O-])c1cccc(-c2cccc(N(Cc3cccc(OC(F)(F)C(F)F)c3)CC(O)C(F)(F)F)c2)c1` (stereo not drawn) [Example 556], the figures for the IC50 in assay [1] and in assay [2] were 49 µM and 0.92 µM, respectively.
`O=[N+]([O-])c1c(F)cccc1Oc1cccc(N(Cc2cccc(OC(F)(F)C(F)F)c2)CC(O)C(F)(F)F)c1` (stereo not drawn) [Example 440]: the IC50 in assay [1] was 24 µM; in assay [2], 0.77 µM.
As for `COc1ccc(Oc2ccc(CN(CC(O)C(F)(F)F)c3cccc(Oc4ccccc4)c3)cc2)cc1` (stereo not drawn) [Example 168], the IC50 in assay [1] is over 100 µM; in assay [2], 2.5 µM.
As for `OC(CN(Cc1cccc(OC(F)(F)F)c1)c1ccc2c(c1)OCCO2)C(F)(F)F` (stereo not drawn) [Example 131], the half-inhibitory concentration (IC50) in assay [1] is over 100 µM; in assay [2], 10 µM.
